Article PMC11282151, “Development of New CD38 Targeted Peptides for Cancer Imaging” (Molecular imaging and biology, 2024)

Experiments:
[1] = molecular target: T1, Recombinant human CD38 protein (Homo sapiens, UniProt P28907); assay: Microscale thermophoresis (MST) binding affinity; design: purchased R&D 2404-AC-010; details: for Response Amplitude: Table S2
Protocol: Microscale thermophoresis (MST) assays determined the binding affinity of synthesized peptides to purified CD38 protein and was performed using the Monolith NT.115 (Nanotemper Technologies, Munich, Germany). […] Recombinant human CD38 protein (R&D, Catalog 2404-AC-010, Minneapolis, MN) was labeled with NT647 (Protein labeling kit red-maleimide, Nanotemper Technologies, Germany) and subsequently diluted to 5 nM in MST-2 buffer (50 mM Tris–HCl, pH 7.4, 150 mM NaCl, 10 mM MgCl2, 2% DMSO, and 0.1% Tween-20). Fluorescence was assessed in MST-2 buffer. Samples were loaded into NT.115 standard capillaries, and analysis was performed at 37 °C, 10% LED power, and 40% MST power. The Kd values were calculated from fragment concentration-dependent changes in normalized fluorescence (Fraction Bound) of different CD38 peptides based on the law of mass action using the MO Affinity Analysis v2.3 software.
Microscale Thermophoresis (MST) measures molecular interactions based on temperature gradient-dependent mobility of fluorescent biomolecules.
Fig. 1 Binding studies evaluating CD38-peptides using purified CD38 protein. Microscale thermophoresis (MST) analysis of binding affinities between purified CD38 protein and various CD38 peptide sequences.

hCD38 = assay: Phage display biopanning, PHASTpep selectivity score; format: binding, human; details: fold change of peptide frequency hCD38 versus average of hCD4, hCD8, GST-His; two rounds of biopanning, NGS
Excerpt: Using phage display and purified human CD38 protein (hCD38), the first generation high- and low-selectivity CD38-targeted peptides were identified for the development of CD38-targeted imaging agents. Briefly, two rounds of phage display screening using the PHASTpep platform identified selective peptides for human CD38. CD38 (R&D, Catalog 2404-AC-010, Minneapolis, MN, U.S.A.) or negative control proteins, human CD4 (hCD4), human CD8 (hCD8), and GST-6His were adsorbed on Maxisorp plates (Nalgene, Nunc #442,404) according to NEB phage display protocols (NEB, Ipswich, MA). A 10 μL aliquot of PhD7 library (7 amino acid linear library) (2 × 10^11 phage) (NEB, #E8211S) diluted in blocking buffer (DPBS/1% bovine serum albumin (BSA)) was added to each well. After 1 h of incubation at room temperature, wells were washed five times with blocking buffer and the remaining bound phage eluted into 100 μL of glycine buffer (0.2 M glycine, 0.5 M NaCl, pH 2.2) for 9 min before immediately neutralizing with 17 μL of 1 M Tris–HCl (pH 9.2).
For analysis, sequencing of the selected phage clones was performed as described in Brinton et al.. Samples sent to the UVA Biomolecular Research Core Facility were deep sequenced on an Illumina MiSeq Sequencer. FASTQ files were analyzed using PHASTpep. PHASTpep analyzed files were aligned for amino acid sequence homology using the Smith—Waterman algorithm.
To identify peptides selective for CD38, we biopanned a random, 7 amino acid peptide phage library on recombinant hCD38 as well as hCD4, hCD8, and GST-His. After two rounds of biopanning on each protein, phage were harvested, amplified, and processed for next generation sequencing (NGS). FASTQ files were uploaded into PHASTpep, translated into peptides, and tables of frequency produced. All sequences were normalized to the naïve library (preselection) sequence frequencies and finally the fold change for each peptide frequency between hCD38 and the average of the same peptide frequency from the hCD4, hCD8, and GST-His screens was calculated. The Smith-Waterman homology algorithm was employed to identify clusters of similar peptides (Table S1). From the analysis, two clusters emerged with more than 5 peptides in the homology family and also had high selectivity (PHASTpep Score, Table S1).

[2] = molecular target: T2, CD38 on MM.1S-CBR-GFP-WT cells (Homo sapiens, UniProt P28907); assay: In vitro blocking study of ^64Cu-NODAGA-PEG4-SL022-GGS cell binding; format: cell-based; details: for blocking of ^64Cu-NODAGA-PEG4-SL022-GGS binding: 75 μM blocker, MM.1S-CBR-GFP-WT cells
T2 construct: endogenous in cells; host or cells: MM.1S-CBR-GFP-WT human myeloma cells
Protocol: To evaluate the specificity of the CD38 binding peptide, MM.1S-CBR-GFP-WT cells were suspended in binding buffer (Hank’s Balanced Salt Solution with 1 mM Ca^2+ and 1 mM Mg^2+ (HBSS + / +, Gibco, ThermoFisher, Waltham, MA) supplemented with 0.1% BSA) at 4 × 10^5 cells per 250 μL, representing the reaction volume.
In order to determine whether the conjugates were able to identify CD38 protein expressed in its native context, we performed cell binding assays with MM.1S-CBR-GFP-WT cells.

[3] = molecular target: T1, Recombinant human CD38 protein; assay: MST; Monolith NT.115; NT647-labeled recombinant human CD38 at 5 nM in MST-2 buffer (50 mM Tris-HCl pH 7.4, 150 mM NaCl, 10 mM MgCl2, 2% DMSO, 0.1% Tween-20); peptides titrated (0.0305 nM to 1000 nM or 0.0305 uM to 1000 uM); 37 °C, 10% LED power, 40% MST power

Molecule	Score (PHASTpep Score) (hCD38)	also measured
AC-Phe-Ser-Arg-Asp-Trp-Thr-Ser-Gly-Gly-Ser-Lys-NH2 [AC-SL028-GGS]		Response Amplitude [1]: 4.64
AC-Thr-His-Tyr-Pro-Ile-Val-Ile-Gly-Gly-Ser Lys-NH2 [AC-SL022-GGS]		Response Amplitude [1]: 4.91
DLVHYPE	1.5	
FSRDWTS	671.1	
MPVARDW	2.1	
NODAGA-PEG4-Thr-His-Tyr-Pro-Ile-Val-Ile-Gly-Gly-Ser-Lys-NH2 [NODAGA-PEG4-SL022-GGS]		blocking of ^64Cu-NODAGA-PEG4-SL022-GGS binding ([2]; 300 nM tracer, 4 °C, 60 min): 58%; decrease in cell-bound ^64Cu-NODAGA-PEG4-SL022-GGS ([2]; 250-fold molar excess of unlabeled blocker): about 2 fold
QGTDWTM	1.7	
QTSHDWL	1.7	
TPYPIVL	429.7	
Thr-His-Tyr-Pro-Ile-Val-Ile [THYPIVI]	730.1	
VNYHFPV	1.2	binding to purified CD38 [1]: negligible binding
VSYHFPV	194.4	
YDWTMHS	299.7	
YKDWSEW	266.4	
daratumumab: CD38-targeted FDA approved antibody [reference compound]		blocking of ^64Cu-NODAGA-PEG4-SL022-GGS binding ([2]; 300 nM tracer, 4 °C, 60 min): 73%; cell-bound ^64Cu-NODAGA-PEG4-SL022-GGS in presence of blocker ([2]; 300 nM tracer, 75 μM unlabeled blocker (250-fold molar excess), 4 °C, 60 min, mean ± SD): 3000 ± 600 fmol/mg
H-KGGSFSRDWTS-NH2 [GGS-SL028 (H-Lys-Gly-Gly-Ser-Phe-Ser-Arg-Asp-Trp-Thr-Ser-NH2)]		Kd [3]: 82.6 nM
FSRDWTSGGSK (AC (acetyl) on the N-terminus; C-terminal amide) [AC-SL028-GGS (AC-Phe-Ser-Arg-Asp-Trp-Thr-Ser-Gly-Gly-Ser-Lys-NH2)]		Kd [3]: 243 nM
